Target: T1, human renin (Homo sapiens, UniProt P00797)
T1 construct: A human plasma pool is used as the source of both the substrate (angiotensinogen) and the enzyme (renin); from tissue; host or cells: pooled human plasma
T1 sequence (P00797 67-406): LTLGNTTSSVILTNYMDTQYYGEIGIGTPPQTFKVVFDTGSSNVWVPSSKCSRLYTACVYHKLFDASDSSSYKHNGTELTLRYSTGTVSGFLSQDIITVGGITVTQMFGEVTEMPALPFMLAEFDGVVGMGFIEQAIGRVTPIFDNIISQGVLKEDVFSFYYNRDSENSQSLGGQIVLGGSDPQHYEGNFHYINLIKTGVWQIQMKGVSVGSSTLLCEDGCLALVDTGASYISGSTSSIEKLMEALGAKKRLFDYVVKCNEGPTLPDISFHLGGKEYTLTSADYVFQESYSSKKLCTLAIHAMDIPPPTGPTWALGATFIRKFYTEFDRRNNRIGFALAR
Assay: plasma renin assay (inhibition of human renin; angiotensin I generated, measured by radioimmunoassay)
Assay type: biochemical
Conditions: human plasma pool, pH 6.0, 2 h incubation at 37°
In short: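 Pooled human plasma supplies both renin and angiotensinogen; inhibitor in MES/1% HSA buffer (1% DMSO final) incubated 2 h at 37° at pH 6.0. Angiotensin I generated quantified by radioimmunoassay, inhibition relative to no-inhibitor control, IC50 by nonlinear regression.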

Compound	IC50 [nM]
CC(C)C[C@H](O)[C@H](O)[C@H](CC1CCCCC1)NC(=O)[C@@H](CC(=O)N(Cc1ccccc1)CC1(O)CCCCC1)CC1CC1 [Compound 1, N^4-benzyl-N^4-[(1-hydroxycyclohexyl)methyl]-N^1-[1(S)-(cyclohexylmethyl)-2(R),3(S)-dihydroxy-5-methylhexyl]-2(R)-(cyclopropylmethyl)butanediamide]	36
CC(C)C[C@H](O)[C@H](O)[C@H](CC1CCCCC1)NC(=O)[C@@H](CC(=O)N(Cc1ccccn1)CC1(O)CCCCCC1)CC1CC1 [Compound 8, N^4-[(1-hydroxycycloheptyl)methyl]-N^4-(2-pyridinylmethyl)-N^1-[1(S)-(cyclohexylmethyl)-2(R),3(S)-dihydroxy-5-methylhexyl]-2(R)-(cyclopropylmethyl)butanediamide]	65
CC(C)C[C@H](O)[C@H](O)[C@H](CC1CCCCC1)NC(=O)[C@@H](CC(=O)N(CC1CCCCC1)CC1(O)CCCCC1)CC1CC1 [Compound 25, N^4-(cyclohexylmethyl)-N^4-[(1-hydroxycyclohexyl)methyl]-N^1-[1(S)-(cyclohexylmethyl)-2(R),3(S)-dihydroxy-5-methylhexyl]2(R)-(cyclopropylmethyl)butanediamide]	79
CC(C)C[C@H](O)[C@H](O)[C@H](CC1CCCCC1)NC(=O)[C@@H](CC(=O)N(CC1CC1)CC1(O)CCCCC1)CC1CC1 [Compound 16, N^4-(cyclopropylmethyl)-N^4-[(1-hydroxycyclohexyl)methyl]-N^1-[1(S)-(cyclohexylmethyl)-2(R),3(S)-dihydroxy-5-methylhexyl]-2(R)-(cyclopropylmethyl)butanediamide]	89
CC(C)C[C@H](O)[C@H](O)[C@H](CC1CCCCC1)NC(=O)[C@@H](CC(=O)N(C)CC1(O)CCCCC1)Cc1cscn1 [Compound 30, N^4-[(1-hydroxycyclohexyl)methyl]-N^4-methyl-N^1-[1(S)-(cyclohexylmethyl)-2(R),3(S)-dihydroxy-5-methylhexyl]-2(R)-(4-thiazolylmethyl)butanediamide]	12
CC(C)C[C@H](O)[C@H](O)[C@H](CC1CCCCC1)NC(=O)[C@@H](CC(=O)NC[C@@H](O)C1CCCCC1)CC1CC1 [Compound 20 (S), N^4-(S)-(2-cyclohexyl-2-hydroxyethyl)-N^1-[1(S)-(cyclohexylmethyl)-2(R),3(S)-dihydroxy-5-methylhexyl]-2(R)-(cyclopropylmethyl)butanediamide]	150
CC(C)C[C@H](O)[C@H](O)[C@H](CC1CCCCC1)NC(=O)[C@@H](CC(=O)N(Cc1ccccc1)C[C@H](O)c1ccccc1)CC1CC1 [Compound 11, N^4-benzyl-N^4-(R)-(2-hydroxy-2-phenylethyl)-N^1-[1(S)-(cyclohexylmethyl)-2(R),3(S)-dihydroxy-5-methylhexyl]-2(R)-(cyclopropylmethyl)butanediamide]	110

Now from value to compound:

IC50 [nM]	Compound
13	CC(C)C[C@H](O)[C@H](O)[C@H](CC1CCCCC1)NC(=O)[C@@H](CC(=O)N(CC1CCCC1)CC(C)(C)O)Cc1cscn1 [Compound 50, N^4-(cyclopentylmethyl)-N^4-(2-hydroxy-2-methylpropyl)-N^1-[1(S)-(cyclohexylmethyl)-2(R),3(S)-dihydroxy-5-methylhexyl]-2(R)-(4-thiazolylmethyl)butanediamide]
5	CC(C)C[C@H](O)[C@H](O)[C@H](CC1CCCCC1)NC(=O)[C@@H](CC(=O)N(CC(=O)C(C)C)CC1CCCCC1)Cc1csc(N)n1 [Compound 63, N^4-(cyclohexylmethyl)-N^4-(3-methyl-2-oxobutyl)-N^1-[1(S)-(cyclohexylmethyl)-2(R),3(S)-dihydroxy-5-methylhexyl]-2(R)-[(2-amino-4-thiazolyl)methyl]butanediamide]
2	CC(C)C[C@H](O)[C@H](O)[C@H](CC1CCCCC1)NC(=O)[C@@H](CC(=O)N(CC(=O)N(C)CCc1ccccn1)CC1(O)CCCCC1)Cc1csc(N)n1 [Compound 49, N^4-[(1-hydroxycyclohexyl)methyl]-N^4 -{2-{methyl[2-(2-pyridinyl)ethyl]amino}-2-oxoethyl}-N^1-[1(S)-(cyclohexylmethyl)-2(R),3(S)-dihydroxy-5-methylhexyl]-2(R)-[(2-amino-4-thiazolyl)methyl]butanediamide]
10	CC(C)C[C@H](O)[C@H](O)[C@H](CC1CCCCC1)NC(=O)[C@@H](CC(=O)N(CC(=O)N(C)C)CC(O)c1ccccc1)Cc1cscn1 (mixture of isomers) [Compound 44, N^4-[2-(dimethylamino)-2-oxoethyl]-N^4-[2(R,S)-hydroxy-2-phenylethyl]-N^1-[1(S)-(cyclohexylmethyl)-2(R),3(S)-dihydroxy-5-methylhexyl]-2(R)-(4-thiazolylmethyl)butanediamide]
1.3	CC(C)C[C@H](O)[C@H](O)[C@H](CC1CCCCC1)NC(=O)[C@@H](CC(=O)N(CC(=O)N(C)C)CC1(O)CCCCC1)Cc1csc(N)n1 [Compound 46, N^4-[2-(dimethylamino)-2-oxoethyl]-N^4-[(1-hydroxycyclohexyl)methyl]-N^1-[1(S)-(cyclohexylmethyl)-2(R),3(S)-dihydroxy-5-methylhexyl]-2(R)-[(2-amino-4-thiazolyl)methyl]butanediamide]
9	CC(C)C[C@H](O)[C@H](O)[C@H](CC1CCCCC1)NC(=O)[C@@H](CC(=O)N(CC(=O)C(C)C)CC1CCCCC1)Cc1cscn1 [Compound 61, N^4-(cyclohexylmethyl)-N^4-(3-methyl-2-oxobutyl)-N^1-[1(S)-(cyclohexylmethyl)-2(R),3(S)-dihydroxy-5-methylhexyl]-2(R)-(4-thiazolylmethyl)butanediamide]

From patent US5523315A, “N-(hydroxyethyl)butanediamide derivatives” (Bio-Mega/Boehringer Ingelheim Research Inc., priority 1993, dated 1996)
